# Results from ChEMBL document CHEMBL1157076, “Tetracenoquinocin and 5-iminoaranciamycin from a sponge-derived Streptomyces sp. Sp080513GE-26” (J Nat Prod, 2010).
# System: HeLa
# Assay: Cytotoxicity against human HeLa cells after 48 hrs by WST8 assay
# Format: functional, cell-based
# Conditions: not given
row,Structure (SMILES),IC50
1,CO[C@H]1[C@H](O[C@@H]2c3c(cc4c(c3O)C(=O)c3c(O)cccc3C4=O)C(=O)[C@@](C)(O)[C@H]2OC)O[C@@H](C)[C@H](O)[C@H]1O [ARANCIAMYCIN],2.7 µM
2,CO[C@H]1[C@H](Oc2cc(C)cc3cc4c(c(O)c23)C(=O)c2c(O)cccc2C4=O)O[C@@H](C)[C@H](O)[C@H]1O [TETRACENOQUINOCIN],120 µM
3,CO[C@H]1[C@H](O[C@@H]2c3c(cc4c(c3O)C(=N)c3c(O)cccc3C4=O)C(=O)[C@@](C)(O)[C@H]2OC)O[C@@H](C)[C@H](O)[C@H]1O,> 200 µM

# System: HL-60
# Assay: Cytotoxicity against human HL60 cells after 48 hrs by WST8 assay
# Format: functional, cell-based
# Conditions: HL-60, 48 h
row,Structure (SMILES),IC50
1,CO[C@H]1[C@H](O[C@@H]2c3c(cc4c(c3O)C(=O)c3c(O)cccc3C4=O)C(=O)[C@@](C)(O)[C@H]2OC)O[C@@H](C)[C@H](O)[C@H]1O [ARANCIAMYCIN],4.1 µM
2,CO[C@H]1[C@H](Oc2cc(C)cc3cc4c(c(O)c23)C(=O)c2c(O)cccc2C4=O)O[C@@H](C)[C@H](O)[C@H]1O [TETRACENOQUINOCIN],210 µM
3,CO[C@H]1[C@H](O[C@@H]2c3c(cc4c(c3O)C(=N)c3c(O)cccc3C4=O)C(=O)[C@@](C)(O)[C@H]2OC)O[C@@H](C)[C@H](O)[C@H]1O,> 200 µM
